In test [1] the target is T1, Leukotriene A-4 hydrolase (Homo sapiens) (UniProt P09960).
T1 sequence (whole entry): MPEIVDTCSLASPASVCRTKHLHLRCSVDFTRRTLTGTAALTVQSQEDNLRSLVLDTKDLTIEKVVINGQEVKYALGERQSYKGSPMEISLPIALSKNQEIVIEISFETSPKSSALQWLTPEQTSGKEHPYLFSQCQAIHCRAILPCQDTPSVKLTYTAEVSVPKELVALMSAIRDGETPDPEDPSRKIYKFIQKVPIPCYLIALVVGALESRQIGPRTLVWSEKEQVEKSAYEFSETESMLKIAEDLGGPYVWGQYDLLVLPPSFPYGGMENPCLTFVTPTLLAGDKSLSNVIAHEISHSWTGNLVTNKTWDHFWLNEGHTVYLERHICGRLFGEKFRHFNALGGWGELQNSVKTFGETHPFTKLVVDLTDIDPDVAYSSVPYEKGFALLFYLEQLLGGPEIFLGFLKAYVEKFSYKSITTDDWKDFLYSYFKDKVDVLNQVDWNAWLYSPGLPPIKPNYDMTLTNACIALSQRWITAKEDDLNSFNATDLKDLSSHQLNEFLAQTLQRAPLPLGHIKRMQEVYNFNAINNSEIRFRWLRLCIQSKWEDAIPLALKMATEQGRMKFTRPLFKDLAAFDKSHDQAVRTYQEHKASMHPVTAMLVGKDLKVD

Test [2] has as its target T1, Leukotriene A-4 hydrolase (Homo sapiens). This is another data set of the same source.
Description: Binding affinity to human C-terminal His6-tagged/N-terminal T7 gene leader sequence-tagged LTA4H assessed as change in melting temperature at 1 mM by circular dichroism spectroscopic analysis
The target of test [3] is T2, Leukotriene A-4 hydrolase (Homo sapiens, UniProt P09960).
T2 sequence (P09960 whole entry): T1 sequence (whole entry)
Description: Binding affinity to human C-terminal his6-tagged/N-terminal T7 gene leader sequence-tagged LTA4H at 25 degC by ITC method. In general terms: In ITC the heat of successive injections is recorded.

Test [4] addresses T2, Leukotriene A-4 hydrolase. Nature of the test: Binding affinity to human C-terminal his6-tagged/N-terminal T7 gene leader sequence-tagged LTA4H at 15 degC by ITC method.
The target in test [5] is T2, Leukotriene A-4 hydrolase. Nature of the test: Competitive inhibition of human C-terminal his6-tagged/N-terminal T7 gene leader sequence-tagged LTA4H using varying levels of L-arginine-7-amino-4-Methylcoumarine as substrate preincubated for 30 mins followed by substrate addition measured for 30 mins by fluorescence assay.
Test [6] concerns the target T2, Leukotriene A-4 hydrolase. Description: Binding affinity to human C-terminal his6-tagged/N-terminal T7 gene leader sequence-tagged LTA4H at 35 degC by ITC method.
Test [7] has as its target T1, Leukotriene A-4 hydrolase (Homo sapiens). Nature of the test: Binding affinity to human C-terminal His6-tagged/N-terminal T7 gene leader sequence-tagged LTA4H assessed as change in melting temperature at 0.5 mM by circular dichroism spectroscopic analysis. On the technique in general: Circular dichroism is the unequal absorption of left and right circularly polarised light.

Test [8] deals with T2, Leukotriene A-4 hydrolase. Nature of the test: Inhibition of human C-terminal his6-tagged/N-terminal T7 gene leader sequence-tagged LTA4H using L-arginine-7-amino-4-Methylcoumarine as substrate preincubated for 30 mins followed by substrate addition measured for 30 mins by fluorescence assay.
Test [9] has as its target T1, Leukotriene A-4 hydrolase (Homo sapiens). The settings on record: 40 uM.

Turning to `CC(C)C[C@H](NC(=O)[C@@H](O)[C@H](N)Cc1ccccc1)C(=O)O`, the ΔTm (as a rule, the shift of the melting midpoint relative to a reference) in [1] amounted to 5.1 °C; in [2], 5.2 °C.

Take `CN(C)CCOc1ccc(Oc2ccccc2)cc1`: the Kd – broadly, the constant that tells how readily two partners part at equilibrium – was 270 nM in [3], 60 nM in [4] and 270 nM in [6]. Further, the ΔTm in [1] was 5 °C; in test [7], 7.8 °C. For the same compound, in test [5], affinity was put at a Ki of 160 nM. In addition, in test [8], the concentration for half-maximal inhibition (IC50) (usually the midpoint of a concentration-inhibition curve) stood at 60 nM.

As to `C[C@H](CS)C(=O)N1CCC[C@H]1C(=O)O` [CAPTOPRIL], the Kd in [3] was 6250 nM; in test [4] it was 6370 nM; in [6], 8470 nM. In addition, the shift in melting temperature (ΔTm) in [1] was determined as 1.5 °C; in test [2] it was 0.7 °C. For the same compound, the inhibition constant Ki (usually a dissociation constant, usually derived from enzyme kinetics or from competition with a known ligand) in test [5] was found to be 3700 nM. The compound further gave an IC50 in [8] of 3600 nM.

As for `Nc1nc(-c2ccc(Cc3ccccc3)cc2)cs1`, the Kd in test [3] stood at 310 nM; in test [4] it was 130 nM; in test [6], 220 nM. In addition, the shift in melting temperature (ΔTm) in test [9] and in test [1] was 5.3 °C each time. The compound also registered an inhibition constant Ki in [5] of 360 nM. Besides, the concentration for half-maximal inhibition (IC50) in test [8] came to 400 nM.

On to `CN(CCCOc1ccc(Cc2ccccc2)cc1)CCC(=O)O`, for which the ΔTm in [1] came to 5.4 °C; in test [7], 8.9 °C.

These data come from ChEMBL document CHEMBL3860073, “Thermodynamic properties of leukotriene A4 hydrolase inhibitors” (Bioorg Med Chem, 2016).
